Tests used:
[1] = molecular target: GABA-A receptor; anion channel; assay: Displacement of [3H]flunitrazepam from GABA-A central benzodiazepine receptor of mouse brain
[2] = molecular target: GABA-A receptor; anion channel; assay: Displacement of [35S]TBPS from GABA-A receptor complex at low umolar concentration; type: protein-complex assay
Rattus norvegicus = assay: Tested for minimum effective dose required to cause motor in coordination in Geller-Seifter model in CFY rats (route of administration is peroral 30 min before testing); type: functional; settings: po, read-out: MED
[3] = tested on: GABA-A receptor; anion channel; assay: Displacement of [35S]TBPS from GABA-A receptor complex at low umolar concentration (insoluble); type: protein-complex assay
[4] = tested on: GABA-A receptor; anion channel; assay: Displacement of [3H]flunitrazepam from GABA-A central benzodiazepine receptor of mouse brain (insoluble)

Structure (SMILES)	IC50 [1]	IC50 [2]	minimal effective dose (Rattus norvegicus)	IC50 [3]	IC50 [4]
CCOC(=O)c1c(C)nc2c(c1N)c1ccccc1n2C	> 100 µM	4.6 µM	10 mg/kg		
COC(=O)c1c(C)nc2c(c1N)c1ccccc1n2C	> 100 µM	14.6 µM	10 mg/kg		
Cc1[nH]c2nc3ccccc3c-2c(N)c1C(N)=O	> 100 µM	> 100 µM	> 50 mg/kg		
Cc1nc2c(c(N)c1C(=O)OCc1ccccc1)c1ccccc1n2C	> 30 µM	> 30 µM	> 50 mg/kg		
CCCOC(=O)c1c(C)nc2c(c1N)c1ccccc1n2C	> 100 µM	2.2 µM	10 mg/kg		
C=CCOC(=O)c1c(C)nc2c(c1N)c1ccccc1n2C	> 100 µM	3.8 µM	20 mg/kg		
COC(=O)c1c(C)nc2c(c1N)c1cc(Cl)ccc1n2C			50 mg/kg	Insoluble	Insoluble
COC(=O)c1c(C)nc2c(c1N)c1ccccc1n2C(=O)OC	> 30 µM	9.5 µM	20 mg/kg		
COC(=O)c1c(C)nc2c(c1N)c1ccccc1n2C1CCCC1	> 100 µM	80 µM	> 50 mg/kg		
CNc1c(C(=O)OC)c(C)nc2c1c1ccccc1n2C	82.3 µM	17.1 µM	20 mg/kg		
COC(=O)c1c(-c2ccccc2)nc2c(c1N)c1ccccc1n2C	> 30 µM	11.2 µM	50 mg/kg		
CCn1c2ccccc2c2c(N)c(C(=O)OC)c(C)nc21	> 100 µM	5.9 µM	5 mg/kg		
COP(=O)(OC)c1c(C)nc2c(c1N)c1ccccc1n2C	> 30 µM	> 30 µM	> 20 mg/kg		
CN1C(=O)CN=C(c2ccccc2)c2cc(Cl)ccc21 [DIAZEPAM]			2.5 mg/kg		
Cc1nc2c(c(N)c1C(=O)O)c1ccccc1n2C	> 100 µM	> 100 µM	> 50 mg/kg		
CCOC(=O)c1c(C)nc2c(c1N)c1ccccc1n2Cc1ccccc1			> 50 mg/kg	Insoluble	Insoluble
Cc1nc2c(c(N)c1CO)c1ccccc1n2C	> 100 µM	> 100 µM	> 50 mg/kg		
COC(=O)c1c(C)[nH]c2nc3ccccc3c-2c1N			5 mg/kg	Insoluble	Insoluble
